Columns and labels:
Format in all cases: in vivo
Sorghum bicolor (SORVU) = assay: Example A post-emergence herbicidal activity, glasshouse pot test; conditions: Rate 15 g/ha, evaluated 15 days later, 100=total damage to plant, 0=no damage to plant
Experimental: (§1) Seeds of a variety of test species were sown in standard soil in pots. After cultivation for one day (pre-emergence) or after 10 days cultivation (post-emergence) under controlled conditions in a glasshouse, the plants were sprayed with an aqueous spray solution derived from the formulation of the technical active ingredient of formula I in 0.6 ml acetone and 45 ml formulation solution containing 10.6% Emulsogen EL (Registry number 61791-12-6), 42.2% N-methylpyrrolidone, 42.2% dipropylene glycol monomethyl ether (Registry number 34590-94-8) and 0.2% X-77 (Registry number 11097-66-8). The test plants were then grown in a greenhouse under optimum conditions until, 15 days later for post-emergence and 20 days for pre-emergence, the test was evaluated (100=total damage to plant; 0=no damage to plant). The compound of Example 1-8-a-1 from WO99/48869 was also sprayed for comparison. Alopecurus myosuroides (ALOMY), Avena fatua (AVEFA), Lolium perenne (LOLPE), Setaria faberi (SETFA), Digitaria sanguinalis (DIGSA), Echinochloa crus-galli (ECHCG) and Sorghum bicolor (SORVU) Post-Emergence Activity

[1] = test system: Digitaria sanguinalis (DIGSA); assay: as above; conditions: Rate 15 g/ha, evaluated 15 days later, 100=total damage to plant, 0=no damage to plant
Experimental: as §1

Setaria faberi (SETFA) [2] = assay: as above; conditions: Rate 15 g/ha, evaluated 15 days later, 100=total damage to plant, 0=no damage to plant
Experimental: as §1

[3] = test system: Echinochloa crus-galli (ECHCG); assay: as above; conditions: Rate 15 g/ha, evaluated 15 days later, 100=total damage to plant, 0=no damage to plant
Experimental: as §1

Avena fatua (AVEFA) [4] = assay: as above; conditions: Rate 15 g/ha, evaluated 15 days later, 100=total damage to plant, 0=no damage to plant
Experimental: as §1

[5] = test system: Alopecurus myosuroides (ALOMY); assay: as above; conditions: Rate 15 g/ha, evaluated 15 days later, 100=total damage to plant, 0=no damage to plant
Experimental: as §1

Setaria faberi (SETFA) [6] = assay: Example B pre-emergence herbicidal activity, glasshouse pot test; conditions: rate 250 g/ha, evaluated after 13 days, scale 0-100
Outline: (§2)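 Pots were sprayed one day after sowing with the active ingredient in acetone/water (50:50) containing 0.5% Tween 20. Plants were kept in a glasshouse at 24/16° C day/night, 14 h light, 65% humidity. Damage was scored 13 days later (0 none to 100 total).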

[7] = test system: Echinochloa crus-galli (ECHCG); assay: as above; conditions: 312 h, rate 250 g/ha, evaluated after 13 days, scale 0-100, read-out: Pre-emergence activity ECHCG (100=total damage to plant; 0=no damage to plant)
Outline: as §2

Avena fatua (AVEFA) [8] = assay: as above; conditions: 312 h, rate 250 g/ha, evaluated after 13 days, scale 0-100, read-out: Pre-emergence activity AVEFA (100=total damage to plant; 0=no damage to plant)
Outline: as §2

[9] = test system: Alopecurus myosuroides (ALOMY); assay: as above; conditions: 312 h, rate 250 g/ha, evaluated after 13 days, scale 0-100, read-out: Pre-emergence activity ALOMY (100=total damage to plant; 0=no damage to plant)
Outline: as §2

[10] = test system: Digitaria sanguinalis (DIGSA); assay: Example A pre-emergence herbicidal activity, glasshouse pot test; conditions: Rate 250 g/ha, evaluated 20 days later, 100=total damage to plant, 0=no damage to plant
Experimental: as §1, with “Pre-Emergence” for “Post-Emergence”

Setaria faberi (SETFA) [11] = assay: as above; conditions: Rate 250 g/ha, evaluated 20 days later, 100=total damage to plant, 0=no damage to plant
Experimental: as §1, with “Pre-Emergence” for “Post-Emergence”

[12] = test system: Echinochloa crus-galli (ECHCG); assay: as above; conditions: Rate 250 g/ha, evaluated 20 days later, 100=total damage to plant, 0=no damage to plant
Experimental: as §1, with “Pre-Emergence” for “Post-Emergence”

Avena fatua (AVEFA) [13] = assay: as above; conditions: Rate 250 g/ha, evaluated 20 days later, 100=total damage to plant, 0=no damage to plant
Experimental: as §1, with “Pre-Emergence” for “Post-Emergence”

[14] = test system: Alopecurus myosuroides (ALOMY); assay: as above; conditions: Rate 250 g/ha, evaluated 20 days later, 100=total damage to plant, 0=no damage to plant
Experimental: as §1, with “Pre-Emergence” for “Post-Emergence”

Lolium perenne (LOLPE) = assay: as above; conditions: Rate 250 g/ha, evaluated 20 days later, 100=total damage to plant, 0=no damage to plant
Experimental: as §1, with “Pre-Emergence” for “Post-Emergence”

Setaria faberi (SETFA) [15] = assay: Example B post-emergence herbicidal activity, glasshouse pot test; conditions: rate 250 g/ha, evaluated after 13 days, scale 0-100
Outline: (§3)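 Seeds sown in standard soil, grown 8 days in glasshouse (24/16 °C day/night, 14 h light, 65% humidity), then sprayed post-emergence with compound in acetone/water (50:50) containing 0.5% Tween 20. Damage scored visually after 13 days on a 0–100 scale (100 = total damage).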

[16] = test system: Echinochloa crus-galli (ECHCG); assay: as above; conditions: 312 h, rate 250 g/ha, evaluated after 13 days, scale 0-100, read-out: Post-emergence activity ECHCG (100=total damage to plant; 0=no damage to plant)
Outline: as §3

Avena fatua (AVEFA) [17] = assay: as above; conditions: 312 h, rate 250 g/ha, evaluated after 13 days, scale 0-100, read-out: Post-emergence activity AVEFA (100=total damage to plant; 0=no damage to plant)
Outline: as §3

[18] = test system: Alopecurus myosuroides (ALOMY); assay: as above; conditions: 312 h, rate 250 g/ha, evaluated after 13 days, scale 0-100, read-out: Post-emergence activity ALOMY (100=total damage to plant; 0=no damage to plant)
Outline: as §3

Row | Structure (SMILES) | Post-Emergence Activity SORVU (damage to plant) (Sorghum bicolor (SORVU)) | Post-Emergence Activity DIGSA (damage to plant) [1] | Post-Emergence Activity SETFA (damage to plant) (Setaria faberi (SETFA) [2]) | Post-Emergence Activity ECHCG (damage to plant) [3] | Post-Emergence Activity AVEFA (damage to plant) (Avena fatua (AVEFA) [4]) | Post-Emergence Activity ALOMY (damage to plant) [5] | Pre-emergence activity SETFA (100=total damage to plant; 0=no damage to plant) (Setaria faberi (SETFA) [6]) | pest or weed control at 250 g/ha [7] [%] | pest or weed control at 250 g/ha (Avena fatua (AVEFA) [8]) [%] | pest or weed control at 250 g/ha [9] [%] | Pre-Emergence Activity DIGSA (damage to plant) [10] | Pre-Emergence Activity SETFA (damage to plant) (Setaria faberi (SETFA) [11]) | Pre-Emergence Activity ECHCG (damage to plant) [12] | Pre-Emergence Activity AVEFA (damage to plant) (Avena fatua (AVEFA) [13]) | Pre-Emergence Activity ALOMY (damage to plant) [14] | Pre-Emergence Activity LOLPE (damage to plant) (Lolium perenne (LOLPE)) | Post-emergence activity SETFA (100=total damage to plant; 0=no damage to plant) (Setaria faberi (SETFA) [15]) | pest or weed control at 250 g/ha [16] [%] | pest or weed control at 250 g/ha (Avena fatua (AVEFA) [17]) [%] | pest or weed control at 250 g/ha [18] [%]
1 | CCc1ccc(-c2ccc(Cl)cc2)cc1C1=C(O)CC(C)(C)CC1=O [Compound T3] | 70 | 70 | 70 | 70 | 20 | 50 | 100 | 100 | 20 | 60 | 100 | 80 | 100 | 50 | 90 | 100 | 100 | 100 | 20 | 100
2 | CCc1ccc(-c2ccc(Cl)cc2)cc1C1=C(O)C(C)(C)CCC1=O [Compound T1, 2-(4′-chloro-4-ethylbiphen-3-yl)-4,4-dimethyl-1,3-cyclohexanedione] | 50 | 80 | 90 | 70 | 10 | 0 | 100 | 100 | 0 | 50 | – | 100 | 90 | 70 | 60 | 90 | 100 | 100 | 40 | 90
3 | Cc1ccc(-c2ccc(Cl)cc2)cc1C1=C(O)C(C)(C)CCC1=O [Example 1-8-a-1 from WO99/48869, reference compound] | 0 | 20 | 20 | 70 | 0 | 0 | – | – | – | – | 70 | 30 | 90 | 0 | 20 | 20 | – | – | – | –
4 | CCc1ccc(-c2ccc(Cl)cc2)cc1C1=C(O)CCCC1=O [Compound T2] | 70 | 80 | 80 | 90 | 0 | 0 | 100 | 100 | 40 | 40 | 80 | 80 | 100 | 70 | 60 | 70 | 100 | 100 | 80 | 90

Source: US8741806B2, “Herbicides” (Syngenta Limited, priority 2009, dated 2014)
